Measured values from US6649658B1, “(−)-Verbenone derivatives” (Euphar Group SRL, priority 1999, dated 2003).

Key:
[1] = tested on: Carrageenin-induced Pleurisy; experiment: Carrageenin-induced pleurisy in the rat by the intraperitoneal route; assay type: in vivo; conditions: 25 mg/kg
Excerpt: (§1) The anti-inflammatory activity of 3-amino-(−)-verbenone-5-sulphosalicylate was compared with that of (−)-verbenone in accordance with methods described in the literature (C. A. WINTER et al. Carrageenin induced edema in hind paw of the rat as an assay for antinflammatory drugs. Proc. Soc. Exp. Biol. Med. 111, 544, 1962. CURVOISIER et al. Action of chlorpromazine on the edema produced by dextran in rats. Arch. Inter. Pharmacodynamie, 102, 33-54, 1955. B. B. NEWBOULD) Chemotherapy of arthritis induced in rats by microbacterial adjuvant. Brit. J. Pharmacol. 21, 127-135, 1963. J. V. HURLEY et al. Reagin-Like antibodies in animals immune to helminth parasites. Nature (Lond.) 204, 91, 1964. ROTHKOPF et al. Arzneimittel Forschung 26, 225-235, 1976. C. A. WINTER et al. Antitussive compounds: testing methods and results. J. Pharmacol. Exp. Ther. 112, 99, 1954. G. OSTERLOH Arzneimittel Forschung, 16, 901, 1966); the results are given hereinafter in schematic form.
6. Carrageenin-induced Pleurisy in the Rat by the Intraperitoneal Route
(§2) Parameter: percentage inhibition of the volume of exudate: […]

Adjuvant Arthritis = experiment: Adjuvant arthritis in the rat by the intraperitoneal route; assay type: in vivo; conditions: 60 mg/kg, day 28
Excerpt: as §1
3 Adjuvant Arthritis in the Rat by the Intraperitoneal Route
Parameter: percentage inhibition of the volumetric increase of the lower limbs; day “28”: […]

[2] = tested on: Acrolein-induced Aerosol (inflammation of the airways); experiment: Acrolein-induced aerosol in the guinea pig by the intraperitoneal route; assay type: in vivo; conditions: 30 mg/kg, residual inflammation after treatment (lower is better)
Excerpt: as §1
7. Acrolein-induced Aerosol in the Guinea Pig by the Intraperitoneal Route
Parameter: inflammation of the upper, middle, lower airways: scores (double blind):
(§3) N. B. It should be emphasised in this connection that the results of Examples 1-6 have been given as a percentage of volumetric inhibition; Examples 7 and 8, however, indicate inflammation and adverse gastric action of a residual nature after treatment.

[3] = tested on: Carrageenin-induced Oedema; experiment: Carrageenin-induced oedema in the rat by the intraperitoneal route; assay type: in vivo; conditions: 120 mg/kg, maximum effect 120 minutes after administration
Excerpt: as §1
2. Carrageenin-induced Oedema in the Rat by the Intraperitoneal Route
(§4) Parameter: percentage volumetric inhibition; maximum effect 120 minutes after administration: […]

Adverse Gastric Activity = experiment: Adverse gastric activity in the rat per os (Osterloh); assay type: in vivo; conditions: for evaluation of adverse gastric action according to Osterloh: rat, per os, 360 mg/kg, residual adverse gastric action after treatment
Excerpt: as §1
8. Adverse Gastric Activity in the Rat per OS
Parameter: evaluation of adverse gastric action according to Osterloh
as §3

[4] = tested on: Carrageenin-induced Pleurisy; experiment: Carrageenin-induced pleurisy in the rat per os; assay type: in vivo; conditions: 180 mg/kg
Excerpt: as §1
5. Carrageenin-induced Pleurisy in the Rat per OS
as §2

[5] = tested on: Turpentine-induced Pleurisy; experiment: Turpentine-induced pleurisy in the rat by the intraperitoneal route; assay type: in vivo; conditions: 60 mg/kg
Excerpt: as §1
4. Turpentine-induced Pleurisy in the Rat by the Intraperitoneal Route
Parameter: percentage inhibition of the volume of exudate and of leukocyte migration: […]

[6] = tested on: Carrageenin-induced Oedema; experiment: Carrageenin-induced oedema in the rat per os; assay type: in vivo; conditions: 200 mg/kg, maximum effect 120 minutes after administration
Excerpt: as §1
1. Carrageenin-induced Oedema in the Rat per OS
as §4

[7] = Stability on storage or handling; assay type: physicochemical; conditions: in words
Water solubility = assay type: physicochemical; conditions: in words

With “3-Aminoverbenone-5-sulphosalicylate [3-amino-(−)-verbenone-5-sulphosalicylate]” the “percentage inhibition of the volume of exudate” value [1] was 64%, the “percentage inhibition of the volumetric increase of the lower limbs” value (Adjuvant Arthritis) was 64% and the “inflammation of the upper, middle, lower airways: scores (double blind)” value [2] was 18. The percentage volumetric inhibition [3] was 67%, the “evaluation of adverse gastric action according to Osterloh” value (Adverse Gastric Activity) was 0.85 and the “adverse gastric activity compared with (−)-verbenone” value (Adverse Gastric Activity; test 8, in words) was “substantially lower adverse gastric activity”. The “percentage inhibition of the volume of exudate” value [4] was 72%, the “percentage inhibition of the volume of exudate and of leukocyte migration” value [5] was 68% and the percentage volumetric inhibition [6] was 78%.
For `C=C1C=C(N2CCCC2)[C@H]2C[C@H]1C2(C)C` [Compound 9c, (1S,5S)-6,6-Dimethyl-4-methylene-2-pyrrolidinobicyclo[3.1.1]hept-2-ene], the stability [7] was “sensitive to oxygen, moisture and light”.
With `CC1=CC(=O)[C@H]2C[C@@H]1C2(C)C` [(−)-verbenone, (1S,5S)-4,6,6-Trimethylbicyclo[3.1.1]hept-3-en-2-one] the “percentage inhibition of the volume of exudate” value [1] was 48%, the “percentage inhibition of the volumetric increase of the lower limbs” value (Adjuvant Arthritis) was 39% and the “inflammation of the upper, middle, lower airways: scores (double blind)” value [2] was 24. The percentage volumetric inhibition [3] was 48%, the solubility in water (Water solubility) was “water-insolubility” and the “evaluation of adverse gastric action according to Osterloh” value (Adverse Gastric Activity) was 2. The “percentage inhibition of the volume of exudate” value [4] was 46%, the “percentage inhibition of the volume of exudate and of leukocyte migration” value [5] was 49% and the percentage volumetric inhibition [6] was 63%. The stability [7] was “instability over time”.
